According to patent US20100159496A1, “EVALUATION METHOD FOR PHOTOSYNTHESIS SAMPLE, EVALUATION SYSTEM FOR PHOTOSYNTHESIS SAMPLE, AND EVALUATION PROGRAM FOR PHOTOSYNTHESIS SAMPLE” (HAMAMATSU PHOTONICS K.K., priority 2006, published 2010):

Key:
[1] = system: Spirulina platensis; experiment: Delayed luminescence of S. platensis exposed to simazine, fitted by Formula (1); assay type: cell-based; parameters: Fitting formula value c3 / Fitting formula value a1 / Fitting formula value b1 / Fitting formula value c1 / Fitting formula value a2 / Fitting formula value b2 / Fitting formula value c2 / Fitting formula value a3 / Fitting formula value b3: unit not given here; conditions: for luminescence amount of delayed luminescence, exposed vs not exposed: 15 minutes after exposure (FIG. 10); for Fitting formula value a1 / Fitting formula value a2 / Fitting formula value a3 / Fitting formula value b1 / Fitting formula value b2 / Fitting formula value b3 / Fitting formula value c1 / Fitting formula value c2 / Fitting formula value c3: 15 minutes after exposure
Protocol: In the present example, the measurement of delayed luminescence was carried out as follows. 2.5 mL of an S. platensis cell suspension, adjusted to have an absorbance at 660 nm of 0.05 in a general, 10×10 mm spectrometric cell, was exposed to simazine of any of various concentrations and left to stand for 15 minutes under a white fluorescent lamp of a light amount of 50 μmol·m−2·s−1. Thereafter, inside the measuring device 10, a red light (660 nm) of approximately 300 μmol·m−2·s−1 was illuminated for 10 seconds from the light source 18 as the excitation light for making delayed luminescence be emitted and then the delayed luminescence emitted after extinguishing of the excitation light was recorded for 50 seconds at 0.1 second intervals.
In the present example, the above-described Formula (1) was used for fitting. As examples for description of the fitting results, the measurement result for the “Not exposed” case is shown in FIG. 11A and a graph of the results of fitting to the measurement data are shown in FIG. 11B. In FIG. 11B, f1(t), f2(t), and f3(t) are respectively the first function, the second function, and the third function in Formula (1). From FIG. 11, it can be understood that the delayed luminescence measurement data can be fitted by a plurality of hill-shaped functions.
By the fitting, the function coefficients, ai, bi, and ci (i=1, 2, 3) are determined.

[2] = system: Spirulina platensis; experiment: Algae growth inhibition, area under growth curve (OECD Test Guideline 201), S. platensis; assay type: cell-based; conditions: 72 hours after exposure, various simazine concentrations (FIG. 9)
Protocol: The area under the growth curve indicates cell growth, which is a conventional evaluation index of chemical substance impact on algae and is computed in compliance to a method for evaluating the impact of a chemical substance on a general algae (OECD Test Guideline 201). That is, the area under the growth curve is the area under the growth curve obtained by culturing 6 mL of an S. platensis cell suspension, adjusted to have an absorbance at 750 nm of 0.03, under a white fluorescent lamp (50 μmol·m−2·s−1) for 72 hours after chemical substance exposure and measuring, every 24 hours, a cell density as the absorbance at 750 nm.

[3] = simazine exposure concentration 5 μg/L
[4] = simazine exposure concentration 25 μg/L
[5] = simazine exposure concentration 50 μg/L
[6] = simazine exposure concentration 100 μg/L

CCNc1nc(Cl)nc(NCC)n1 [Simazine, simazine]
variation of evaluation value c3 with simazine exposure concentration ([1]; S. platensis (FIG. 12)): decreases in accordance with the simazine exposure concentration
luminescence amount of delayed luminescence, exposed vs not exposed ([1]; early time period (near 0 seconds) of time after excitation): increases
luminescence amount of delayed luminescence, exposed vs not exposed ([1]; later time period (5 seconds onward) after excitation): decreases
Fitting formula value a1 [1, 3]: 0.2
Fitting formula value a2 [1, 3]: 0.01
Fitting formula value a3 [1, 3]: 0.006
Fitting formula value b1 [1, 3]: −0.5
Fitting formula value b2 [1, 3]: −0.5
Fitting formula value b3 [1, 3]: 22
Fitting formula value c1 [1, 3]: 4.5
Fitting formula value c2 [1, 3]: 3.5
Fitting formula value c3 [1, 3]: 2.2
Fitting formula value a1 [1, 4]: 0.2
Fitting formula value a2 [1, 4]: 0.018
Fitting formula value a3 [1, 4]: 0.005
Fitting formula value b1 [1, 4]: −0.5
Fitting formula value b2 [1, 4]: −0.5
Fitting formula value b3 [1, 4]: 22
Fitting formula value c1 [1, 4]: 4.8
Fitting formula value c2 [1, 4]: 3.8
Fitting formula value c3 [1, 4]: 1.6
Fitting formula value a1 [1, 5]: 0.3
Fitting formula value a2 [1, 5]: 0.02
Fitting formula value a3 [1, 5]: 0.01
Fitting formula value b1 [1, 5]: −0.5
Fitting formula value b2 [1, 5]: −0.5
Fitting formula value b3 [1, 5]: 21
Fitting formula value c1 [1, 5]: 5
Fitting formula value c2 [1, 5]: 3.8
Fitting formula value c3 [1, 5]: 1.2
Fitting formula value a1 [1, 6]: 0.4
Fitting formula value a2 [1, 6]: 0.024
Fitting formula value a3 [1, 6]: 0.02
Fitting formula value b1 [1, 6]: −0.5
Fitting formula value b2 [1, 6]: −0.5
Fitting formula value b3 [1, 6]: 20
Fitting formula value c1 [1, 6]: 5.5
Fitting formula value c2 [1, 6]: 3.8
Fitting formula value c3 [1, 6]: 0.7
cell growth (area under the growth curve) [2]: inhibited according to the exposure concentration of simazine
